According to patent publication US7087648B1, “Methods for modulating macrophage proliferation using polyamine analogs” (The Regents of the University of California, priority 1997, dated 2006):
Where two headings read alike, the source gives them in different places.

Experiments:
CD14^+ cells [1] = test: In vivo response of blood CD14 cells (PCNA, CD69 expression) to DEHOP in AIDS lymphoma patients; parameters: species or system human; settings: FIG. 7
Experimental: Four patients who had failed standard chemotherapy for treatment of their AIDS related lymphoma (therapy included at least CHOP chemotherapy up to six cycles). were evaluated for response to DEHOP administration in vivo. Patients had blood drawn pre administration of drug for evaluation of macrophage activation. This blood was also evaluated for response to DEHOP in vitro. […] Blood was obtained at 1 week after completion of the first and second cycles of therapy. The blood specimens were evaluated for macrophage proliferation (proliferating cell nuclear antigen, PCNA expression), and activation (percentage CD69 expression). Response to therapy was evaluated by direct observation of tumor (3 patients) and persistence or resolution of symptoms (1 patient with GI lymphoma).
Because of intercurrent medical problems the patients were not allowed to receive a third cycle of DEHOP and both patients ultimately relapsed, FL on day 47 and LT on day 54. All of the macrophage activation parameters increased in both patients prior to their clinical objective tumor relapse.

CD14^+ cells [2] = test: In vitro dose response in NHL patient PBMC; total CD14^+ cell survival; assay type: cell-based, human; settings: for EC50: Homo sapiens, PBMC, 120 h, read-out: ED50 (50% of cells killed); for EC50 / ED80 (80% of cells killed): 5 days of culture; for drug sensitivity in vitro: post in vivo DEHOP administration blood specimens
Experimental: To test whether patient macrophages would respond to administration of DEHOP in vitro, CD14 cells in a peripheral blood mononuclear cell preparation (PBMC) were exposed to different concentrations of DEHOP and the proportion of CD14 positive cells surviving at the end of 5 days of culture was assessed in drug treated cells as compared to controls. Specimens obtained pre chemotherapy were compared to specimens obtained 2 weeks post therapy. […] For patient four, the first specimen was obtained one day after the first cycle of DEHOP; the second specimen was obtained one week later. The effective dose 50 (where 50% of cells were killed), and effective dose 80 (where 80% of cells were killed) were calculated for each set of patient specimens exposed to DEHOP in vitro.

[3] = tested on: human brain tumor cell lines; settings: cited from earlier work
brain cell aggregates = test: In vitro cell killing of brain cell aggregates by macrophage supernatants treated or not with DEHOP; assay type: cell-based, human; settings: FIG. 2
Experimental: To collect a maximum number of monocytes (both heavy and light), we used a one-step Percoll protocol. 1.5 mL whole heparinised blood was mixed with an equal volume of isotonic phosphate-buffered solution and layered over 5 mL Percoll at 1.087. The cells were centrifuged, washed, and resuspended in RPMI 1640 supplemented with 10% fetal calf serum at […]. To separate non-adherent lymphocytes from adherent monocytes, culture dishes were washed with RPMI after overnight incubation. The adherent cells were re-fed with RPMI and cultured for 7 days to obtain supernatants. Supernatants were clarified by centrifugation at 90,000 g over 25% sucrose overnight. The supernatant was filtered through a 0.22 μm syringe filter and stored at −70° C.
Human fetal brain tissue from between 16 and 18 weeks' gestation was obtained from elective abortions for preparation of brain cell aggregates. These aggregates contain all the cells of the central nervous system including neurons, astrocytes, oligodendrocytes with accompanying myelin, and microglial cells. After 10 days in culture, and before experimentation, aggregates were tested for viability by trypan-blue exclusion. […]
Lactate dehydrogenase is released on cell lysis. […] The brain aggregate supernatant was reacted with yellow tetrazolium salt and absorbance was read at 490 nm. […]

[4] = tested on: CD14^+/PCNA^+ peripheral blood macrophage; test: In vitro CD14/PCNA staining (FACSCAN) of PBMC from AIDS dementia patients cultured five days with agent; assay type: cell-based, human; settings: for CD14^+/PCNA^+ / CD14^+/PCNA^− / total CD14: HIV dementia patient five; for CD14^+/PCNA^+: 0 drug: 74; for CD14^+/PCNA^−: 0 drug: 472; for total CD14: 0 drug: 546; for % Inhibition of CD14^+/PCNA antigen expression, mean: mean of HIV dementia patients
Experimental: We had previously separated peripheral blood monocytes on Ficoll. […] We then used Percoll gradient separation, which allows for denser cells to be captured. A two-step gradient was prepared in 15 mL conical tubes: bottom layer of 1.087 density Percoll, overlaid with 1.077 density. 1.5 mL whole heparinised blood was mixed with an equal volume of isotonic saline. This blood/saline was layered over the gradient and centrifuged. Cells from the 1.077 and 1.087 interfaces were collected, combined, and washed in 5 volumes of RPMI 1640. […] All further experiments were performed using 1.087 gradient.
Five×10^5 PBMC's isolated through a 1.087 g/cc Percoll/saline gradient were exposed to varied concentrations of agent after baseline CD14/PCNA staining was performed. The cells were cultured at 5×10^5 cells in RPM1-1640/10% fetal calf serum in a polypropylene tube (Falcon) at 37° C. for five days. After five days CD14/PCNA staining was performed on control and agent-treated cultures. FACSCAN analysis of PCNA-positive cells in control cultures was compared with agent-treated cultures and the percentage of control PCNA/CD14 cells was calculated. The results of such an experiment in which the effect of polyamine analog DEHOP (SunPharm; Florida) on proliferating macrophages (as detected by PCNA) from the blood of four patients with AIDS dementia are shown in FIG. 1A (with underlying data provided in Table 3). […] A comparison of the inhibitory effect of DEHOP and cyclosphosphamide, another anti-proliferative agent, was performed in vitro using the blood of one of these patients (“CB”).

With `CCNCCCCNCCCCNCCCCNCC` [DEHOP, 1,14-bis(ethylamino)-5,10-diazatetradecane] the “PCNA/CD69 expression of CD14 cells” value (CD14^+ cells [1]; after administration of drug) was “generally decreased”, the “expression of all macrophage activation parameters” value (CD14^+ cells [1]; day 35 after initiation of study) was “low to background level” and the EC50 (CD14^+ cells [2]; patient one, Pre specimen) was 10 µM. The EC50 (CD14^+ cells [2]; patient three, Post specimen) was 0.1 µM, the EC50 (CD14^+ cells [2]; patient three, Pre specimen) was 10 µM and the EC50 (CD14^+ cells [2]; patient two, Post specimen) was over 10 µM. The EC50 (CD14^+ cells [2]; patient two, Pre specimen) was 1 µM, the “ED80 (80% of cells killed)” value (CD14^+ cells [2]; patient four, Post specimen) was 0.1 µM and the “ED80 (80% of cells killed)” value (CD14^+ cells [2]; patient four, Pre specimen) was 1.0 µM. For the same compound, the “ED80 (80% of cells killed)” value (CD14^+ cells [2]; patient one, Pre specimen) was over 10 µM, the “ED80 (80% of cells killed)” value (CD14^+ cells [2]; patient three, Post specimen) was 0.8 µM and the “ED80 (80% of cells killed)” value (CD14^+ cells [2]; patient three, Pre specimen) was over 10 µM. The “ED80 (80% of cells killed)” value (CD14^+ cells [2]; patient two, Post specimen) was over 10 µM, the “ED80 (80% of cells killed)” value (CD14^+ cells [2]; patient two, Pre specimen) was over 10 µM and the “drug sensitivity in vitro” value (CD14^+ cells [2]; patient two) was “persistently resistant to drug”. The “drug sensitivity in vitro” value (CD14^+ cells [2]; patients) was “marked drug sensitivity”, the “growth, survival, and cell cycle progression” value [3] was “directly affects growth, survival, and cell cycle progression” and the “cell killing by macrophage supernatants” value (brain cell aggregates; non-dementia disease control (AIDS lymphoma), with or without DEHOP treatment) was “did not show significant cell killing”. The “cell killing by macrophage supernatants” value (brain cell aggregates; peripheral blood of an AIDS dementia patient, preparations treated with DEHOP) was “virtually disappeared”, the “PCNA^+/CD14 cell survival” value ([4]; FIG. 6, averages of several (N) experiments) was “decrease” and the “% Inhibition of CD14^+/PCNA antigen expression” value ([4]; HIV dementia patient 1, DEHOP 2 um) was 79%. For the same compound, the “% Inhibition of CD14^+/PCNA antigen expression” value ([4]; HIV dementia patient 1, DEHOP 10 um) was 95%, the “% Inhibition of CD14^+/PCNA antigen expression” value ([4]; HIV dementia patient 1, DEHOP 50 um) was 84% and the “% Inhibition of CD14^+/PCNA antigen expression” value ([4]; HIV dementia patient 2, DEHOP 0.4 um) was 94%. The “% Inhibition of CD14^+/PCNA antigen expression” value ([4]; HIV dementia patient 2, DEHOP 2 um) was 94%, the “% Inhibition of CD14^+/PCNA antigen expression” value ([4]; HIV dementia patient 2, DEHOP 10 um) was 97% and the “% Inhibition of CD14^+/PCNA antigen expression” value ([4]; HIV dementia patient 3, DEHOP 0.4 um) was 66%. For the same compound, the “% Inhibition of CD14^+/PCNA antigen expression” value ([4]; HIV dementia patient 3, DEHOP 2 um) was 62%, the “% Inhibition of CD14^+/PCNA antigen expression” value ([4]; HIV dementia patient 3, DEHOP 10 um) was 58% and the “% Inhibition of CD14^+/PCNA antigen expression” value ([4]; HIV dementia patient 4, DEHOP 0.08 um) was 19%. For the same compound, the “% Inhibition of CD14^+/PCNA antigen expression” value ([4]; HIV dementia patient 4, DEHOP 0.4 um) was 25%, the “% Inhibition of CD14^+/PCNA antigen expression” value ([4]; HIV dementia patient 4, DEHOP 2 um) was 75% and the “CD14^+/PCNA^+” value ([4]; 0.4 (um)) was 25 #cells/10,000 PBMC. The “CD14^+/PCNA^−” value ([4]; 0.4 (um)) was 222 #cells/10,000 PBMC, the “total CD14” value ([4]; 0.4 (um)) was 247 #cells/10,000 PBMC and the “CD14^+/PCNA^+” value ([4]; 2 (um)) was 28 #cells/10,000 PBMC. The “CD14^+/PCNA^−” value ([4]; 2 (um)) was 182 #cells/10,000 PBMC, the “total CD14” value ([4]; 2 (um)) was 210 #cells/10,000 PBMC and the “CD14^+/PCNA^+” value ([4]; 10 um) was 31 #cells/10,000 PBMC. The “CD14^+/PCNA^−” value ([4]; 10 um) was 89 #cells/10,000 PBMC, the “total CD14” value ([4]; 10 um) was 120 #cells/10,000 PBMC and the “percentage of proliferating macrophages (as detected by PCNA)” value ([4]; blood of four patients with AIDS dementia, FIG. 1A) was “significantly reduced the percentage of proliferating macrophages”. The “inhibitory effect compared with cyclosphosphamide” value ([4]; blood of patient five, Table 1) was “superior in inhibition”, the “% Inhibition of CD14^+/PCNA antigen expression, mean” value (from here on “% Inhibition … mean”) ([4]; DEHOP 0.08 um) was 19% and the “% Inhibition … mean” value ([4]; DEHOP 0.4 um) was 62%. For the same compound, the “% Inhibition … mean” value ([4]; DEHOP 2 um) was 78%, the “% Inhibition … mean” value ([4]; DEHOP 10 um) was 83% and the “% Inhibition … mean” value ([4]; DEHOP 50 um) was 84%. For the same compound, the “inhibition and/or killing of blood PCNA^+/CD14^+ cells” value ([4]; summary of the data shown) was “potent inhibition and/or killing”.
